Assay: CT evaluation of initial uptake and vascular distribution of PH-50 in normal rabbits
Assay type: in vivo, New Zealand white rabbits
Details: for Percent Uptake (%) Aorta / Percent Uptake (%) Brain / Percent Uptake (%) Cardiac / Percent Uptake (%) Liver / Percent Uptake (%) Portal Vein / Percent Uptake (%) Posterior Vena Cava: pre-treatment = 0
Protocol: One (1) mL of PH-50 injected as a bolus intravenously (IV) via the jugular vein (n=2); and three (3) mL with a five (5) minute infusion via IV by way of the jugular vein (n=2); using the criteria set forth below in Table 1:
The animals were anesthetized via mask using Isoflorene® prior to each study and maintained under anesthesia during CT scan procedures. The animals were recovered and were mobile and allowed to drink up to the 8 hour study. Digital Subtraction Angiography (DSA) was performed during initial injection (one IV bolus and one infusion), then each rabbit was immediately moved to CT. The CT was performed after the initial injection (one IV bolus and one infusion).
All CT imaging was performed using a GE® Sytec Sri Helical Scanner (Milwaukee, Wis.) and the images were stored as DICOM3 on GE® optical and CD-Rom medium. The CT imaging parameters for these studies were 1 mm consecutive slices at 120 kvp at 1.5 sec, 200 mA. All scans were done with a standard phantom placed beneath the animal. All CT scans performed were of the entire animal (rostral nasal area to pelvis). Contrast attenuation was measured in Hounsfield units (HU) and expressed as percent (%) uptake, taking into account the calibration from the phantom. The iodine concentration and iodine uptake were estimated post-injection from vascular, lung and liver tissues.

[1] = Rabbit No. 1151 (infusion), 0 min
[2] = Rabbit No. 1151 (infusion), 5 min
[3] = Rabbit No. 1151 (infusion), 15 min
[4] = Rabbit No. 1151 (infusion), 60 min
[5] = Rabbit No. 1151 (infusion), 480 min
[6] = Rabbit No. 1151, infusion 3 mL/5 min IV (150 mg/kg), 0 min post injection
[7] = Rabbit No. 1151, infusion 3 mL/5 min IV (150 mg/kg), 5 min post injection
[8] = Rabbit No. 1151, infusion 3 mL/5 min IV (150 mg/kg), 15 min post injection
[9] = Rabbit No. 1151, infusion 3 mL/5 min IV (150 mg/kg), 60 min post injection
[10] = Rabbit No. 1151, infusion 3 mL/5 min IV (150 mg/kg), 480 min post injection
[11] = Rabbit No. 1156 (bolus), 15 min
[12] = Rabbit No. 1156 (bolus), 60 min
[13] = Rabbit No. 1156 (bolus), 480 min
[14] = Rabbit No. 1156, bolus injection 1 mL IV (50 mg/kg), 0 min post injection
[15] = Rabbit No. 1156, bolus injection 1 mL IV (50 mg/kg), 5 min post injection
[16] = Rabbit No. 1156, bolus injection 1 mL IV (50 mg/kg), 15 min post injection
[17] = Rabbit No. 1156, bolus injection 1 mL IV (50 mg/kg), 60 min post injection
[18] = Rabbit No. 1156, bolus injection 1 mL IV (50 mg/kg), 480 min post injection
[19] = Rabbit No. 1159, bolus injection 1 mL IV (50 mg/kg), 15 min post injection
[20] = Rabbit No. 1159, bolus injection 1 mL IV (50 mg/kg), 60 min post injection
[21] = Rabbit No. 1159, bolus injection 1 mL IV (50 mg/kg), 480 min post injection
[22] = Rabbit No. 1166, infusion 3 mL/5 min IV (150 mg/kg), 15 min post injection
[23] = Rabbit No. 1166, infusion 3 mL/5 min IV (150 mg/kg), 60 min post injection
[24] = Rabbit No. 1166, infusion 3 mL/5 min IV (150 mg/kg), 480 min post injection

CCOC(=O)CCCCCOC(=O)c1c(I)c(NC(C)=O)c(I)c(NC(C)=O)c1I [PH-50, 6-ethoxy-6-oxohexy-3,5-bis(acetylamino)-2,4,6-triiodobenzoate]
Percent Uptake (%) Aorta [1]: 44%
Percent Uptake (%) Brain [1]: 2%
Percent Uptake (%) Cardiac [1]: 33%
Percent Uptake (%) Liver [1]: 8%
Percent Uptake (%) Portal Vein [1]: 48%
Percent Uptake (%) Posterior Vena Cava [1]: 54%
Percent Uptake (%) Aorta [2]: 14%
Percent Uptake (%) Brain [2]: 17%
Percent Uptake (%) Cardiac [2]: 61%
Percent Uptake (%) Liver [2]: 32%
Percent Uptake (%) Portal Vein [2]: 91%
Percent Uptake (%) Posterior Vena Cava [2]: 44%
Percent Uptake (%) Aorta [3]: 37%
Percent Uptake (%) Brain [3]: 6%
Percent Uptake (%) Cardiac [3]: 4%
Percent Uptake (%) Liver [3]: 29%
Percent Uptake (%) Portal Vein [3]: 56%
Percent Uptake (%) Posterior Vena Cava [3]: 0%
Percent Uptake (%) Aorta [4]: 39%
Percent Uptake (%) Brain [4]: 14%
Percent Uptake (%) Cardiac [4]: 6%
Percent Uptake (%) Liver [4]: 21%
Percent Uptake (%) Portal Vein [4]: −5%
Percent Uptake (%) Posterior Vena Cava [4]: −43%
Percent Uptake (%) Aorta [5]: −62%
Percent Uptake (%) Brain [5]: 90.1%
Percent Uptake (%) Cardiac [5]: 0%
Percent Uptake (%) Liver [5]: −19%
Percent Uptake (%) Portal Vein [5]: 7%
Percent Uptake (%) Posterior Vena Cava [5]: −21%
Hounsfield Units (HU) Aorta [6]: 49.08 HU
Hounsfield Units (HU) Brain [6]: 44.89 HU
Hounsfield Units (HU) Cardiac [6]: 48.32 HU
Hounsfield Units (HU) Liver [6]: 93.08 HU
Hounsfield Units (HU) Portal Vein [6]: 54.03 HU
Hounsfield Units (HU) Posterior Vena Cava [6]: 73.00 HU
Hounsfield Units (HU) Aorta [7]: 38.85 HU
Hounsfield Units (HU) Brain [7]: 51.38 HU
Hounsfield Units (HU) Cardiac [7]: 58.67 HU
Hounsfield Units (HU) Liver [7]: 113.68 HU
Hounsfield Units (HU) Portal Vein [7]: 69.54 HU
Hounsfield Units (HU) Posterior Vena Cava [7]: 68.54 HU
Hounsfield Units (HU) Aorta [8]: 46.77 HU
Hounsfield Units (HU) Brain [8]: 46.75 HU
Hounsfield Units (HU) Cardiac [8]: 37.81 HU
Hounsfield Units (HU) Liver [8]: 111.22 HU
Hounsfield Units (HU) Portal Vein [8]: 56.85 HU
Hounsfield Units (HU) Posterior Vena Cava [8]: 47.46 HU
Hounsfield Units (HU) Aorta [9]: 47.62 HU
Hounsfield Units (HU) Brain [9]: 50.38 HU
Hounsfield Units (HU) Cardiac [9]: 38.49 HU
Hounsfield Units (HU) Liver [9]: 104.26 HU
Hounsfield Units (HU) Portal Vein [9]: 34.46 HU
Hounsfield Units (HU) Posterior Vena Cava [9]: 27.00 HU
Hounsfield Units (HU) Aorta [10]: 13.00 HU
Hounsfield Units (HU) Brain [10]: 34.37 HU
Hounsfield Units (HU) Cardiac [10]: 36.35 HU
Hounsfield Units (HU) Liver [10]: 69.57 HU
Hounsfield Units (HU) Portal Vein [10]: 38.81 HU
Hounsfield Units (HU) Posterior Vena Cava [10]: 37.72 HU
Percent Uptake (%) Aorta (Rabbit No. 1156 (bolus), 0 min): 317.0%
Percent Uptake (%) Brain (Rabbit No. 1156 (bolus), 0 min): −8%
Percent Uptake (%) Cardiac (Rabbit No. 1156 (bolus), 0 min): 38%
Percent Uptake (%) Liver (Rabbit No. 1156 (bolus), 0 min): 13%
Percent Uptake (%) Portal Vein (Rabbit No. 1156 (bolus), 0 min): 24%
Percent Uptake (%) Posterior Vena Cava (Rabbit No. 1156 (bolus), 0 min): 168.0%
Percent Uptake (%) Aorta (Rabbit No. 1156 (bolus), 5 min): 118%
Percent Uptake (%) Brain (Rabbit No. 1156 (bolus), 5 min): −15%
Percent Uptake (%) Cardiac (Rabbit No. 1156 (bolus), 5 min): 15%
Percent Uptake (%) Liver (Rabbit No. 1156 (bolus), 5 min): 26%
Percent Uptake (%) Portal Vein (Rabbit No. 1156 (bolus), 5 min): 38%
Percent Uptake (%) Posterior Vena Cava (Rabbit No. 1156 (bolus), 5 min): 253%
Percent Uptake (%) Aorta [11]: 162%
Percent Uptake (%) Brain [11]: −8%
Percent Uptake (%) Cardiac [11]: 12%
Percent Uptake (%) Liver [11]: 22%
Percent Uptake (%) Portal Vein [11]: 90%
Percent Uptake (%) Posterior Vena Cava [11]: 112%
Percent Uptake (%) Aorta [12]: 63%
Percent Uptake (%) Brain [12]: −3%
Percent Uptake (%) Cardiac [12]: 18%
Percent Uptake (%) Liver [12]: 19%
Percent Uptake (%) Portal Vein [12]: 108%
Percent Uptake (%) Posterior Vena Cava [12]: 33%
Percent Uptake (%) Aorta [13]: 23%
Percent Uptake (%) Brain [13]: −3%
Percent Uptake (%) Cardiac [13]: 4%
Percent Uptake (%) Liver [13]: −12%
Percent Uptake (%) Portal Vein [13]: −5%
Percent Uptake (%) Posterior Vena Cava [13]: 91%
Hounsfield Units (HU) Aorta [14]: 65.00 HU
Hounsfield Units (HU) Brain [14]: 29.00 HU
Hounsfield Units (HU) Cardiac [14]: 54.00 HU
Hounsfield Units (HU) Liver [14]: 85.00 HU
Hounsfield Units (HU) Portal Vein [14]: 52.00 HU
Hounsfield Units (HU) Posterior Vena Cava [14]: 51.00 HU
Hounsfield Units (HU) Aorta [15]: 34.00 HU
Hounsfield Units (HU) Brain [15]: 27.00 HU
Hounsfield Units (HU) Cardiac [15]: 45.00 HU
Hounsfield Units (HU) Liver [15]: 95.32 HU
Hounsfield Units (HU) Portal Vein [15]: 58.08 HU
Hounsfield Units (HU) Posterior Vena Cava [15]: 67.00 HU
Hounsfield Units (HU) Aorta [16]: 40.85 HU
Hounsfield Units (HU) Brain [16]: 29.03 HU
Hounsfield Units (HU) Cardiac [16]: 44.02 HU
Hounsfield Units (HU) Liver [16]: 91.73 HU
Hounsfield Units (HU) Portal Vein [16]: 79.65 HU
Hounsfield Units (HU) Posterior Vena Cava [16]: 40.31 HU
Hounsfield Units (HU) Aorta [17]: 25.38 HU
Hounsfield Units (HU) Brain [17]: 30.57 HU
Hounsfield Units (HU) Cardiac [17]: 46.52 HU
Hounsfield Units (HU) Liver [17]: 89.56 HU
Hounsfield Units (HU) Portal Vein [17]: 87.37 HU
Hounsfield Units (HU) Posterior Vena Cava [17]: 25.31 HU
Hounsfield Units (HU) Aorta [18]: 19.20 HU
Hounsfield Units (HU) Brain [18]: 30.50 HU
Hounsfield Units (HU) Cardiac [18]: 40.65 HU
Hounsfield Units (HU) Liver [18]: 66.15 HU
Hounsfield Units (HU) Portal Vein [18]: 39.73 HU
Hounsfield Units (HU) Posterior Vena Cava [18]: 36.24 HU
Hounsfield Units (HU) Aorta [19]: 43.80 HU
Hounsfield Units (HU) Brain [19]: 32.30 HU
Hounsfield Units (HU) Cardiac [19]: 30.13 HU
Hounsfield Units (HU) Liver [19]: 87.08 HU
Hounsfield Units (HU) Portal Vein [19]: 53.54 HU
Hounsfield Units (HU) Posterior Vena Cava [19]: 52.17 HU
Hounsfield Units (HU) Aorta [20]: 43.83 HU
Hounsfield Units (HU) Brain [20]: 34.39 HU
Hounsfield Units (HU) Cardiac [20]: 44.96 HU
Hounsfield Units (HU) Liver [20]: 94.17 HU
Hounsfield Units (HU) Portal Vein [20]: 89.92 HU
Hounsfield Units (HU) Posterior Vena Cava [20]: 65.48 HU
Hounsfield Units (HU) Aorta [21]: 21.00 HU
Hounsfield Units (HU) Brain [21]: 31.00 HU
Hounsfield Units (HU) Cardiac [21]: 33.73 HU
Hounsfield Units (HU) Liver [21]: 76.24 HU
Hounsfield Units (HU) Portal Vein [21]: 39.15 HU
Hounsfield Units (HU) Posterior Vena Cava [21]: 25.36 HU
Hounsfield Units (HU) Aorta [22]: 20.82 HU
Hounsfield Units (HU) Brain [22]: 27.15 HU
Hounsfield Units (HU) Cardiac [22]: 47.51 HU
Hounsfield Units (HU) Liver [22]: 117.99 HU
Hounsfield Units (HU) Portal Vein [22]: 63.85 HU
Hounsfield Units (HU) Posterior Vena Cava [22]: 43.09 HU
Hounsfield Units (HU) Aorta [23]: 23.08 HU
Hounsfield Units (HU) Brain [23]: 34.85 HU
Hounsfield Units (HU) Cardiac [23]: 37.66 HU
Hounsfield Units (HU) Liver [23]: 108.39 HU
Hounsfield Units (HU) Portal Vein [23]: 59.87 HU
Hounsfield Units (HU) Posterior Vena Cava [23]: 25.08 HU
Hounsfield Units (HU) Aorta [24]: 14.30 HU
Hounsfield Units (HU) Brain [24]: 38.90 HU
Hounsfield Units (HU) Cardiac [24]: 35.31 HU
Hounsfield Units (HU) Liver [24]: 63.20 HU
Hounsfield Units (HU) Portal Vein [24]: 42.92 HU
Hounsfield Units (HU) Posterior Vena Cava [24]: 39.35 HU
adverse reactions to the compound (normal rabbits, 1 mL bolus or 3 mL/5 min infusion IV): no adverse reactions
Hounsfield units in the liver post-injection (normal rabbits, CT): dramatic increase

Reference: patent US20100055032A1, “METHODS FOR […] IMAGING USING NANOP[…] AGENTS” (NanoScan Imaging LLC, priority 2001, published 2010)
